Results as given in the supplement of paper PMC10733146.

Tests used:
Assay in all cases: viability relative to DMSO control (fraction); higher = less drug effect (more viable cells)
Conditions in all cases: 48 h
Venetoclax = compound: CC1(C)CCC(CN2CCN(c3ccc(C(=O)NS(=O)(=O)c4ccc(NCC5CCOCC5)c([N+](=O)[O-])c4)c(Oc4cnc5[nH]ccc5c4)c3)CC2)=C(c2ccc(Cl)cc2)C1 [Venetoclax]
How it was run: (§1)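 Compounds were pre-plated at five concentrations, one well each, in 384-well plates, and primary mononuclear tumour cells were plated on them at 4 × 10^4 cells per well. The cells, fresh or cryopreserved, had been Ficoll-isolated from blood or bone marrow or taken from processed lymph node. After 48 h at 37 °C and 5% CO2 in RPMI-1640 with penicillin/streptomycin, L-glutamine and human serum, viability was read as CellTiter-Glo luminescence relative to the median of 16 inner DMSO wells.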

Navitoclax = compound: CC1(C)CCC(c2ccc(Cl)cc2)=C(CN2CCN(c3ccc(C(=O)NS(=O)(=O)c4ccc(N[C@H](CCN5CCOCC5)CSc5ccccc5)c(S(=O)(=O)C(F)(F)F)c4)cc3)CC2)C1 [Navitoclax]
How it was run: as §1

I-BET-762 = compound: CCNC(=O)C[C@@H]1N=C(c2ccc(Cl)cc2)c2cc(OC)ccc2-n2c(C)nnc21 [I-BET-762]
How it was run: as §1

Vindesine = compound: CC[C@]1(O)C[C@@H]2CN(CCc3c([nH]c4ccccc34)[C@@](C(=O)OC)(c3cc4c(cc3OC)N(C)[C@H]3[C@@](O)(C(N)=O)[C@H](O)[C@]5(CC)C=CCN6CC[C@]43[C@@H]65)C2)C1 [Vindesine]
How it was run: as §1

[1] = compound: CCc1ccc(/C=C2/SC(=S)NC2=O)cc1
How it was run: as §1

Idasanutlin (RS7388) = compound: COc1cc(C(=O)O)ccc1NC(=O)[C@@H]1N[C@@H](CC(C)(C)C)[C@](C#N)(c2ccc(Cl)cc2F)[C@H]1c1cccc(Cl)c1F [Idasanutlin (RS7388)]
How it was run: as §1

[2] = compound: C[C@H](NC(=O)CCC(F)(F)F)C(=O)N[C@@H]1C(=O)N(CCO)c2ncccc2-c2ccccc21
How it was run: as §1

Duvelisib = compound: C[C@H](Nc1ncnc2nc[nH]c12)c1cc2cccc(Cl)c2c(=O)n1-c1ccccc1 [Duvelisib]
How it was run: as §1

[3] = compound: C[C@H]1C[C@@H](n2c(Nc3ccc(OC(F)(F)F)cc3)nc3cc(CCC(=O)O)ccc32)CC(C)(C)C1
How it was run: as §1

Pomalidomide = compound: Nc1cccc2c1C(=O)N(C1CCC(=O)NC1=O)C2=O [Pomalidomide]
How it was run: as §1

[4] = compound: O=C(NO)c1cccc(C(=O)NCCc2ccccc2)c1
How it was run: as §1

[5] = compound: O=C(Nc1ccc2[nH]nc(-c3ccncc3)c2c1)[C@@H]1CCN(CC(=O)N2CCN(c3ccc(-c4ncccn4)cc3)CC2)C1
How it was run: as §1

Filgotinib = compound: O=C(Nc1nc2cccc(-c3ccc(CN4CCS(=O)(=O)CC4)cc3)n2n1)C1CC1 [Filgotinib]
How it was run: as §1

Chlorambucil = compound: O=C(O)CCCc1ccc(N(CCCl)CCCl)cc1 [Chlorambucil]
How it was run: as §1

Thalidomide = compound: O=C1CCC(N2C(=O)c3ccccc3C2=O)C(=O)N1 [Thalidomide]
How it was run: as §1

## primary AML patient cells (S079)
Venetoclax; 0.00064 µM
  viability: 1.01
Venetoclax; 0.0032 µM
  viability: 0.869
Venetoclax; 0.016 µM
  viability: 0.668
Venetoclax; 0.08 µM
  viability: 0.563
Venetoclax; 0.4 µM
  viability: 0.541
Navitoclax; 0.0032 µM
  viability: 1
Navitoclax; 0.016 µM
  viability: 0.924
Navitoclax; 0.08 µM
  viability: 0.706
Navitoclax; 0.4 µM
  viability: 0.551
Navitoclax; 2 µM
  viability: 0.482
I-BET-762; 0.008 µM
  viability: 0.958
I-BET-762; 0.04 µM
  viability: 0.855
I-BET-762; 0.2 µM
  viability: 0.715
I-BET-762; 1 µM
  viability: 0.559
I-BET-762; 5 µM
  viability: 0.422
Vindesine; 0.016 µM
  viability: 0.888
Vindesine; 0.08 µM
  viability: 0.842
Vindesine; 0.4 µM
  viability: 0.718
Vindesine; 2 µM
  viability: 0.621
Vindesine; 10 µM
  viability: 0.562
[1]; 0.024 µM
  viability: 0.741
[1]; 0.12 µM
  viability: 0.817
[1]; 0.6 µM
  viability: 0.944
[1]; 3 µM
  viability: 0.85
[1]; 15 µM
  viability: 0.933
Idasanutlin (RS7388); 0.032 µM
  viability: 0.809
Idasanutlin (RS7388); 0.16 µM
  viability: 0.865
Idasanutlin (RS7388); 0.8 µM
  viability: 0.747
Idasanutlin (RS7388); 4 µM
  viability: 0.583
Idasanutlin (RS7388); 20 µM
  viability: 0.523
[2]; 0.016 µM
  viability: 1.07
[2]; 0.08 µM
  viability: 1.03
[2]; 0.4 µM
  viability: 1.08
[2]; 2 µM
  viability: 0.999
[2]; 10 µM
  viability: 0.921
Duvelisib; 0.0016 µM
  viability: 0.893
Duvelisib; 0.008 µM
  viability: 0.858
Duvelisib; 0.04 µM
  viability: 0.783
Duvelisib; 0.2 µM
  viability: 0.764
Duvelisib; 1 µM
  viability: 0.67
[3]; 0.024 µM
  viability: 0.905
[3]; 0.12 µM
  viability: 0.917
[3]; 0.6 µM
  viability: 0.923
[3]; 3 µM
  viability: 0.929
[3]; 15 µM
  viability: 0.935
Pomalidomide; 0.0032 µM
  viability: 0.97
Pomalidomide; 0.016 µM
  viability: 1.05
Pomalidomide; 0.08 µM
  viability: 1.09
Pomalidomide; 0.4 µM
  viability: 1.16
Pomalidomide; 2 µM
  viability: 1.08
[4]; 0.024 µM
  viability: 0.944
[4]; 0.12 µM
  viability: 0.968
[4]; 0.6 µM
  viability: 0.95
[4]; 3 µM
  viability: 0.928
[4]; 15 µM
  viability: 0.929
[5]; 0.008 µM
  viability: 0.738
[5]; 0.04 µM
  viability: 0.673
[5]; 0.2 µM
  viability: 0.624
[5]; 1 µM
  viability: 0.519
[5]; 5 µM
  viability: 0.462
Filgotinib; 0.024 µM
  viability: 0.926
Filgotinib; 0.12 µM
  viability: 0.891
Filgotinib; 0.6 µM
  viability: 0.908
Filgotinib; 3 µM
  viability: 0.792
Filgotinib; 15 µM
  viability: 0.405
Chlorambucil; 0.032 µM
  viability: 0.955
Chlorambucil; 0.16 µM
  viability: 0.996
Chlorambucil; 0.8 µM
  viability: 1
Chlorambucil; 4 µM
  viability: 0.97
Chlorambucil; 20 µM
  viability: 0.709
Thalidomide; 0.032 µM
  viability: 0.91
Thalidomide; 0.16 µM
  viability: 0.915
Thalidomide; 0.8 µM
  viability: 0.93
Thalidomide; 4 µM
  viability: 0.962
Thalidomide; 20 µM
  viability: 0.978

## primary CLL patient cells (S043)
Venetoclax; 0.00064 µM
  viability: 1.04
Venetoclax; 0.0032 µM
  viability: 0.927
Venetoclax; 0.016 µM
  viability: 0.917
Venetoclax; 0.08 µM
  viability: 0.81
Venetoclax; 0.4 µM
  viability: 0.648
Navitoclax; 0.0032 µM
  viability: 1.05
Navitoclax; 0.016 µM
  viability: 0.991
Navitoclax; 0.08 µM
  viability: 0.989
Navitoclax; 0.4 µM
  viability: 0.85
Navitoclax; 2 µM
  viability: 0.666
I-BET-762; 0.008 µM
  viability: 0.909
I-BET-762; 0.04 µM
  viability: 0.929
I-BET-762; 0.2 µM
  viability: 0.947
I-BET-762; 1 µM
  viability: 0.884
I-BET-762; 5 µM
  viability: 0.756
Vindesine; 0.016 µM
  viability: 0.865
Vindesine; 0.08 µM
  viability: 0.82
Vindesine; 0.4 µM
  viability: 0.844
Vindesine; 2 µM
  viability: 0.666
Vindesine; 10 µM
  viability: 0.605
[1]; 0.024 µM
  viability: 0.742
[1]; 0.12 µM
  viability: 0.789
[1]; 0.6 µM
  viability: 0.832
[1]; 3 µM
  viability: 0.847
[1]; 15 µM
  viability: 0.868
Idasanutlin (RS7388); 0.032 µM
  viability: 0.915
Idasanutlin (RS7388); 0.16 µM
  viability: 0.94
Idasanutlin (RS7388); 0.8 µM
  viability: 0.792
Idasanutlin (RS7388); 4 µM
  viability: 0.424
Idasanutlin (RS7388); 20 µM
  viability: 0.176
[2]; 0.016 µM
  viability: 0.892
[2]; 0.08 µM
  viability: 1.11
[2]; 0.4 µM
  viability: 0.984
[2]; 2 µM
  viability: 1.1
[2]; 10 µM
  viability: 0.896
Duvelisib; 0.0016 µM
  viability: 0.768
Duvelisib; 0.008 µM
  viability: 0.759
Duvelisib; 0.04 µM
  viability: 0.704
Duvelisib; 0.2 µM
  viability: 0.739
Duvelisib; 1 µM
  viability: 0.677
[3]; 0.024 µM
  viability: 0.84
[3]; 0.12 µM
  viability: 0.859
[3]; 0.6 µM
  viability: 0.895
[3]; 3 µM
  viability: 1.08
[3]; 15 µM
  viability: 0.803
Pomalidomide; 0.0032 µM
  viability: 0.98
Pomalidomide; 0.016 µM
  viability: 1.07
Pomalidomide; 0.08 µM
  viability: 1.08
Pomalidomide; 0.4 µM
  viability: 1.02
Pomalidomide; 2 µM
  viability: 1.03
[4]; 0.024 µM
  viability: 0.932
[4]; 0.12 µM
  viability: 0.979
[4]; 0.6 µM
  viability: 0.926
[4]; 3 µM
  viability: 0.915
[4]; 15 µM
  viability: 0.905
[5]; 0.008 µM
  viability: 0.757
[5]; 0.04 µM
  viability: 0.734
[5]; 0.2 µM
  viability: 0.683
[5]; 1 µM
  viability: 0.661
[5]; 5 µM
  viability: 0.629
Filgotinib; 0.024 µM
  viability: 0.911
Filgotinib; 0.12 µM
  viability: 0.91
Filgotinib; 0.6 µM
  viability: 0.894
Filgotinib; 3 µM
  viability: 0.919
Filgotinib; 15 µM
  viability: 0.257
Chlorambucil; 0.032 µM
  viability: 0.942
Chlorambucil; 0.16 µM
  viability: 0.954
Chlorambucil; 0.8 µM
  viability: 0.977
Chlorambucil; 4 µM
  viability: 0.859
Chlorambucil; 20 µM
  viability: 0.441
Thalidomide; 0.032 µM
  viability: 0.893
Thalidomide; 0.16 µM
  viability: 0.892
Thalidomide; 0.8 µM
  viability: 0.892
Thalidomide; 4 µM
  viability: 0.939
Thalidomide; 20 µM
  viability: 0.945
